The results in this text go back to US12275731B2, “Azaindole inhibitors of wild-type and mutant forms of LRRK2” (DANA-FARBER CANCER INSTITUTE, INC., priority 2018, dated 2025).

Each structure is given as a SMILES string.

Experiment in all cases: KinomeScan profiling
What all share (type): binding
Common to all, as to details: read-out: % control

Assay [1] deals with T1, FLT3(D835H) (Homo sapiens, UniProt P36888, D835H).
T1 sequence (P36888 27-993 D835H): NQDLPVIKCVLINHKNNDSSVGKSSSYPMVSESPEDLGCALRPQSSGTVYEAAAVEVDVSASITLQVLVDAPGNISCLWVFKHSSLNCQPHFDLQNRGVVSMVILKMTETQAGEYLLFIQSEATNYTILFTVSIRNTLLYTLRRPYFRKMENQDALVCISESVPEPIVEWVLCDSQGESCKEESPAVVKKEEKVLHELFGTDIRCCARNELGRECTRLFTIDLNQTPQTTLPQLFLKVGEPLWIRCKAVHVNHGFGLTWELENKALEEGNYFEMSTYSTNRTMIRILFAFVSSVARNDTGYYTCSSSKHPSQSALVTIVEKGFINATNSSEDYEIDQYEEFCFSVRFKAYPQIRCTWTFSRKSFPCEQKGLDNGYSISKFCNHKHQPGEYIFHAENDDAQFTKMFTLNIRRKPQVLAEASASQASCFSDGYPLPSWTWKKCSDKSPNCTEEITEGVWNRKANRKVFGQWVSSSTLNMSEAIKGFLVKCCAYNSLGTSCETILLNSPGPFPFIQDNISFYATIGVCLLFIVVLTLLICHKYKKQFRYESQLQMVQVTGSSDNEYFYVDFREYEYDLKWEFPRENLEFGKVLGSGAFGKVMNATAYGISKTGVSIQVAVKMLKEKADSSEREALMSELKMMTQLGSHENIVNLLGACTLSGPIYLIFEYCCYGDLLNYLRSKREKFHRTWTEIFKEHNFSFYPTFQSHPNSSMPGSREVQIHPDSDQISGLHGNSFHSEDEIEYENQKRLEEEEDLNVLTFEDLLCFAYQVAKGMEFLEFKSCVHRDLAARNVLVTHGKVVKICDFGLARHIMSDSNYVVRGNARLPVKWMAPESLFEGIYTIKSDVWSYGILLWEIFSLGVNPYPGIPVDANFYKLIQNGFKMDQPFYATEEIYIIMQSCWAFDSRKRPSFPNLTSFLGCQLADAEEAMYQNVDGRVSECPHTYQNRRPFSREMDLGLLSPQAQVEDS
The essentials: (§1)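 Selectivity was assessed by binding competition at 1 μM against 468 kinases. Values below 35% of control define an interaction.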

Assay [2] has as its target T2, KIT(A829P) (Homo sapiens, UniProt P10721, A829P).
T2 construct: purchased KinomeScan®
The essentials:
as §1

For assay [3], the target named is MRCKB (Homo sapiens, UniProt Q9Y5S2). An outline of the steps: as §1
For assay [4], the target named is T3, PKAC-beta (Homo sapiens, UniProt P22694).
T3 construct: purchased KinomeScan® (panel service)
An outline of the steps:
as §1

Assay [5] concerns the target T4, TSSK1B (Homo sapiens, UniProt Q9BXA7).
T4 sequence (Q9BXA7 1-367): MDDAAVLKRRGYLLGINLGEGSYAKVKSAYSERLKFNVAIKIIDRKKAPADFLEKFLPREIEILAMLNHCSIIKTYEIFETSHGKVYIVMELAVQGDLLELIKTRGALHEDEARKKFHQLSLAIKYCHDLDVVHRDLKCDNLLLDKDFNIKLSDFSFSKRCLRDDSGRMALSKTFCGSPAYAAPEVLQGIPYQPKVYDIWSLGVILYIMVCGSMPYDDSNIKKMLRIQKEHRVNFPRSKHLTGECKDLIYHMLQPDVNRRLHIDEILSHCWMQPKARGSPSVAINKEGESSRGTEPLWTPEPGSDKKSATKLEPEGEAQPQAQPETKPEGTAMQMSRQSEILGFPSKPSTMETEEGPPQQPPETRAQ
The essentials:
as §1

In assay [6] the target is T5, TTK (Homo sapiens, UniProt P33981).
T5 sequence (P33981 1-857): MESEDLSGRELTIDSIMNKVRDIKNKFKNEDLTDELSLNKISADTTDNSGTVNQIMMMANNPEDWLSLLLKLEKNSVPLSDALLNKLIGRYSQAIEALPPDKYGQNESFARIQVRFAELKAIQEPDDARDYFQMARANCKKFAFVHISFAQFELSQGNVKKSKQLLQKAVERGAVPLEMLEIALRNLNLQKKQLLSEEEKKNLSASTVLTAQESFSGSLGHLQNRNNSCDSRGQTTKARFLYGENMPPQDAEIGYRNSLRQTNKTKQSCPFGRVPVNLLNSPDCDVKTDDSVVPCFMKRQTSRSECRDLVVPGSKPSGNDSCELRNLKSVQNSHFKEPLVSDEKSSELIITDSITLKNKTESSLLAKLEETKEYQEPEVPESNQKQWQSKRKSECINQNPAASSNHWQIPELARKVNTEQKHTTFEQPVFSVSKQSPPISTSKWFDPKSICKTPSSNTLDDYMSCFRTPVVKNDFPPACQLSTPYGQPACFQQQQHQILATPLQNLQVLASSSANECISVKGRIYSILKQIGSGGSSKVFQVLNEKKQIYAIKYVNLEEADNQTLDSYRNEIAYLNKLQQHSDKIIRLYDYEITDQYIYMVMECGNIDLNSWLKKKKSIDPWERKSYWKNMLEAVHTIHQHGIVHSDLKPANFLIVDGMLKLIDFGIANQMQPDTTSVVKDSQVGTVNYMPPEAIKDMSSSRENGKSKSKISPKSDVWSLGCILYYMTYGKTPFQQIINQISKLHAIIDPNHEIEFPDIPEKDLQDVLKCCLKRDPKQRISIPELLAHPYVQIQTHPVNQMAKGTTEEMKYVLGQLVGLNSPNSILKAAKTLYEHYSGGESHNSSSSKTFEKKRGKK
An outline of the steps:
as §1

Chain of MRCKB (Q9Y5S2 whole entry): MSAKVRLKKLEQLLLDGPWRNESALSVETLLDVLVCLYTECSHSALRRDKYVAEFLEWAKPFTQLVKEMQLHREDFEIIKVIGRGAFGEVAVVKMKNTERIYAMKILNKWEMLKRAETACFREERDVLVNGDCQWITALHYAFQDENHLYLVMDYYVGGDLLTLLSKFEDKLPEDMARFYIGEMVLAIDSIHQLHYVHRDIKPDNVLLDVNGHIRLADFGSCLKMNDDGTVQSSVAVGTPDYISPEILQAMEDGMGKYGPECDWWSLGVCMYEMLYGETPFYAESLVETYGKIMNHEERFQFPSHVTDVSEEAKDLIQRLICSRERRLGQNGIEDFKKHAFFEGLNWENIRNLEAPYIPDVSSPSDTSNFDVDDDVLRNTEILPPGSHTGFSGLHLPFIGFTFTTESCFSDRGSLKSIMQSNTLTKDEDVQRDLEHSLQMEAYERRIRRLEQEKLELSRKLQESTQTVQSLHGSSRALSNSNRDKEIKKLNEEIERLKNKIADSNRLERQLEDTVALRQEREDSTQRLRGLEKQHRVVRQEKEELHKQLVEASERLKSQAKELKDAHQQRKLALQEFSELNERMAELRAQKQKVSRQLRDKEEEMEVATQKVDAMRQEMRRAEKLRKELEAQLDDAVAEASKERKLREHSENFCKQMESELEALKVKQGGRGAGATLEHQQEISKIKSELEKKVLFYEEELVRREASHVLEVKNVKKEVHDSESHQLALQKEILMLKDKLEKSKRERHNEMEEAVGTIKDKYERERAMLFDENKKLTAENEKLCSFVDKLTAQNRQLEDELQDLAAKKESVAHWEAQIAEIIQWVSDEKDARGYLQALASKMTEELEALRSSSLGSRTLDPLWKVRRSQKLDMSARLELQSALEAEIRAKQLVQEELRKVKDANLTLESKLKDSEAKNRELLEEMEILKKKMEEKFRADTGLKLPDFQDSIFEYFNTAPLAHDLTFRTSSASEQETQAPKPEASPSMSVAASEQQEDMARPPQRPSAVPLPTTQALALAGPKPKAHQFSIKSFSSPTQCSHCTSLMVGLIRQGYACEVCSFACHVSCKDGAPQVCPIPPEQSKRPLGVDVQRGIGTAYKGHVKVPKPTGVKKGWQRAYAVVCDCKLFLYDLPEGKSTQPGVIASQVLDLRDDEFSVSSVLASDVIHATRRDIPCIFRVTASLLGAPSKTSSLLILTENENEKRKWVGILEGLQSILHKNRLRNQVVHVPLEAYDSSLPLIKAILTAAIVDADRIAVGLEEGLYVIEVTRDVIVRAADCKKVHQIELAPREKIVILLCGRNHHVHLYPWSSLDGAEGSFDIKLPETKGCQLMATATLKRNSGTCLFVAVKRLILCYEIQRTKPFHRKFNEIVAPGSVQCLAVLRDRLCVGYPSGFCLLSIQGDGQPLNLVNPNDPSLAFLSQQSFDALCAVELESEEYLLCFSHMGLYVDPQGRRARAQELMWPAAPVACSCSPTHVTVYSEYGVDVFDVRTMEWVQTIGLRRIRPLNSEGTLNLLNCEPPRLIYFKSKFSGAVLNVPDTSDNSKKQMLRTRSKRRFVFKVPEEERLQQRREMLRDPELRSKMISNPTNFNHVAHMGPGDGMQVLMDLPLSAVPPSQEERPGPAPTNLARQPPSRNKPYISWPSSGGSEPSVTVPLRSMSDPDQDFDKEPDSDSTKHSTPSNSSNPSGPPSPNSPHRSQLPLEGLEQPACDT
T2 sequence (P10721 26-976 A829P): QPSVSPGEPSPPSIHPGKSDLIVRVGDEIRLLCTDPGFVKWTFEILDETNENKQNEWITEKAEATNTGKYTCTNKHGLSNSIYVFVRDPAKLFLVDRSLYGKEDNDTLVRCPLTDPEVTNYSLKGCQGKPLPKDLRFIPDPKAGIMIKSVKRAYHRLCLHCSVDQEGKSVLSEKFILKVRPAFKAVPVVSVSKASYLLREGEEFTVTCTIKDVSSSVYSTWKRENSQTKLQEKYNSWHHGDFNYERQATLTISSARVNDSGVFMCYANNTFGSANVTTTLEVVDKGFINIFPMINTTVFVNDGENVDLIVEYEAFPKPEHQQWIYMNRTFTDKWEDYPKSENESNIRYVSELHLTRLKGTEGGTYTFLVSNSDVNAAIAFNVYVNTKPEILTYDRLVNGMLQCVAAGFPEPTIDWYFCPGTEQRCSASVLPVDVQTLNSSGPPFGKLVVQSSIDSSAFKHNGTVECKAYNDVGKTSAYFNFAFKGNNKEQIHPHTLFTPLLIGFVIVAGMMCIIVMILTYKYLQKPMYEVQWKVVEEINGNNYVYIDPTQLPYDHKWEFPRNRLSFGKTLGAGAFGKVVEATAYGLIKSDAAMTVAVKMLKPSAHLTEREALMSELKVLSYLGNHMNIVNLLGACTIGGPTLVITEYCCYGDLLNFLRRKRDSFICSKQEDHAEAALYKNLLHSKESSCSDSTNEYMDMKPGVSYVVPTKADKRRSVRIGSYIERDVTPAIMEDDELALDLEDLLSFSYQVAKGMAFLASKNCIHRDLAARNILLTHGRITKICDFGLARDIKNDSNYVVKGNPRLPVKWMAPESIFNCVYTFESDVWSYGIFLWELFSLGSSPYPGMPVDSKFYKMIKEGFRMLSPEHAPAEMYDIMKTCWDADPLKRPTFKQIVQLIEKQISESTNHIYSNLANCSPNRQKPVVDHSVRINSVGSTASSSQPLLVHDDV

For `CNc1c(-c2ccc(C(=O)N3CCC(N4CCOCC4)CC3)cc2)cnc2[nH]cc(Cl)c12` [Compound 96, (4-(3-chloro-4-(methylamino)-1H-pyrrolo[2,3-b]pyridin-5-yl)phenyl)(4-morpholinopiperidin-1-yl)methanone], the remaining binding at 1 µM is 9.9% in assay [1]; 53% in assay [2]; 93% in assay [3]; 100% in assay [4]; 100% in assay [5]; 3.6% in assay [6].
`O=C(c1ccc(-c2cnc3[nH]cc(Cl)c3c2NC2CCCC2)cc1)N1CCC(N2CCOCC2)CC1` [Compound 101, (4-(3-chloro-4-(cyclopentylamino)-1H-pyrrolo[2,3-b]pyridin-5-yl)phenyl)(4-morpholinopiperidin-1-yl)methanone]: the remaining binding at 1 µM is 41% in assay [1]; 100% in assay [2]; 82% in assay [3]; 90% in assay [4]; 41% in assay [5]; 54% in assay [6].
`CNc1c(-c2cnn([C@H]3CCN(C(C)=O)C[C@@H]3F)c2)cnc2[nH]cc(Cl)c12` [Compound 77, 1-((3S,4S)-4-(4-(3-chloro-4-(methylamino)-1H-pyrrolo[2,3-b]pyridin-5-yl)-1H-pyrazol-1-yl)-3-fluoropiperidin-1-yl)ethan-1-one]: the remaining binding at 1 µM amounted to 7.9% in assay [1]; 46% in assay [2]; 86% in assay [3]; 100% in assay [4]; 99% in assay [5]; 34% in assay [6].
